{"source": "paper PMC4555001", "about": "(Bioorganic & medicinal chemistry, 2015)", "key": {"ETA receptors [1]": {"test_system": "ETA receptors", "assay": "Inhibition of ET-1 induced vasoconstriction in the gerbil spiral modiolar artery", "conditions": "agonist 1 nM ET-1; antagonist 0.1-1 μM; competitive inhibition assumed"}, "ETA receptor [2]": {"test_system": "ETA receptor", "conditions": "rat cardiac membranes; ref [6]-[9]; cited from earlier work"}, "ETA receptor [3]": {"biological_target": "ETA receptor", "conditions": "read-out: Ki, ET-1 induced contraction of rat aortic strips; ref [6]-[9]; cited from earlier work"}, "[4]": {"test_system": "voltage-gated K^+ currents", "assay": "Patch clamp recording of voltage-gated K+ currents in mouse DRG neurons", "assay_type": "cell-based"}, "[5]": {"test_system": "voltage-gated Na^+ currents (TTX-sensitive)", "assay": "Patch clamp recording of voltage-gated Na+ currents in mouse DRG neurons", "assay_type": "cell-based"}, "[6]": {"test_system": "voltage-gated Ca^2+ currents (LVA, principally Cav3.2 T-type; HVA, mainly L-type)", "assay": "Patch clamp recording of voltage-gated Ca2+ currents in mouse DRG neurons", "assay_type": "cell-based"}, "ETA receptors [7]": {"test_system": "ETA receptors", "conditions": "ref [25], cited from earlier work"}}, "note": "“Also recorded” adds a separate entry of the source."}
{"compound": "CC1(C)C(=O)CC[C@]2(C)[C@H]3CC[C@@H]4CCC(=O)C=C4[C@]3(C)CC[C@@H]12", "note": "[(+)-1, (+)-(4aR,10bR)-1,1,4a,10b-Tetramethyl-4,4a,4b,5,6,6a,7,8,10b,11,12,12a-dodecahydro-chrysene-2,9(1H,3H)-dione]", "values": [{"measurement": "A2 (putative affinity value)", "setting": "ETA receptors [1]", "result": 193, "unit": "nM"}]}
{"compound": "CC1(C)C(=O)CC[C@]2(C)[C@H]3CC[C@@H]4CCC(=O)C[C@@]4(C#N)[C@]3(C)CC[C@@H]12", "note": "[(+)-2, (+)-(4aS,4bR,6aR,10aR,10bR,12aR)-4b,7,7,10a-Tetramethyl-3,8-dioxo-octadecahydrochrysene-4a-carbonitrile]", "values": [{"measurement": "A2 (putative affinity value)", "setting": "ETA receptors [1]", "result": 134, "unit": "nM"}]}
{"compound": "CC1(C)CC[C@]2(C(=O)O)CC[C@]3(COC(=O)/C=C/c4ccc(O)c(O)c4)C(=CC[C@@H]4[C@@]5(C)CCC(=O)C(C)(C)[C@@H]5CC[C@]43C)[C@@H]2C1", "note": "[(+)-myriceric acid A, myriceric acid A]", "values": [{"measurement": "A2 (putative affinity value)", "setting": "ETA receptors [1]", "result": 85, "unit": "nM"}, {"measurement": "Effect on specific binding of [125I]endothelin-1", "setting": "ETA receptor [2]", "result": "antagonizes specific binding"}, {"measurement": "Ki", "setting": "ETA receptor [3]", "result": "66 ± 15", "unit": "nM"}]}
{"compound": "CC1(C)[C@@H]2CC[C@]3(C)[C@H](CC[C@@H]4CC=C(O[Si](C)(C)C(C)(C)C)C[C@]43C=N)[C@@]2(C)CCC12OCCO2", "note": "[(-)-3, (-)-{(4aR,4bR,6aR,10a S,10bR,12aR)-9-(tert-Butyldimethylsilyloxy)-1,1,4a,10b-tetramethyl-3,4,4a,4b,5,6,6a,7,10,10a,10b,11,12,12a-tetradecahydro-1H-spiro[chrysene-2,2′-[1,3]dioxolane]-10a-yl}methanimin]", "values": [{"measurement": "Inhibition of K+ currents", "setting": "[4]; 3 μM", "result": "non-specific inhibition"}, {"measurement": "Inhibition of K+ currents", "setting": "[4]; 0.1 - 0.3 μM, depolarizing to 70 mV for 300 ms", "result": "little inhibition; also recorded: little inhibitory effect"}, {"measurement": "A2 (putative affinity value)", "setting": "ETA receptors [1]", "result": 93, "unit": "nM"}, {"measurement": "Inhibition of Na+ currents", "setting": "[5]; 0.3 μM (as stated in conclusions)", "result": "little inhibitions"}, {"measurement": "Inhibition of Na+ currents", "setting": "[5]; 3 μM", "result": "non-specific inhibition"}, {"measurement": "Inhibition of Na+ currents", "setting": "[5]; 0.1 - 0.3 μM, depolarizing to 0 mV for 20 ms", "result": "little inhibition; also recorded: little inhibitory effect"}, {"measurement": "Inhibition of Ca2+ currents", "setting": "[6]; 3 μM", "result": "completely block; also recorded: non-specific inhibition"}, {"measurement": "Inhibition of Ca2+ currents", "setting": "[6]; 0.1 and 0.3 μM, step to -10 mV from Vh -90 mV", "result": "substantially inhibited"}, {"measurement": "Inhibition of LVA- and HVA-Ca2+ currents", "setting": "[6]; bath application 0.1 - 3 μM", "result": "concentration-dependent inhibition; also recorded: concentration-dependent blockage"}]}
{"compound": "CC1(C)[C@@H]2CC[C@]3(C)[C@H](CC[C@@H]4CC[C@@]5(O)C[C@]43C=N5)[C@@]2(C)CCC12OCCO2", "note": "[(-)-4, (-)-Spiro-(10a, 9)-{(4aR,4bR,6aR,10aS,10bR,12aR)-1,1,4a,10b-tetramethyl-3,4,4a,4b,5,6,6a,7,10,10a,10b,11,12,12a-tetradecahydro-1H-spiro[chrysene-2,2′-[1,3]dioxolane]-10a-yl}methyl-hemiaminal]", "values": [{"measurement": "A2 (putative affinity value)", "setting": "ETA receptors [1]", "result": 301, "unit": "nM"}]}
{"compound": "CC1(C)C(=O)CC[C@]2(C)[C@H]3CCc4ccc(O)cc4[C@]3(C)CC[C@@H]12", "note": "[(-)-5, (-)-(4aR,4bR,10bR)-9-Hydroxy-1,1,4a,10b-tetramethyl-3,4,4a,4b,5,6,10b,11,12,12a-decahydrochrysen-2(1H)-one]", "values": [{"measurement": "A2 (putative affinity value)", "setting": "ETA receptors [1]", "result": 205, "unit": "nM"}]}
{"compound": "CC1(C)C(=O)CC[C@]2(C)[C@H]3CCc4ccc(OCCO)cc4[C@]3(C)CC[C@@H]12", "note": "[(-)-6, (-)-(4aR,10bR)-9-(2-Hydroxyethoxy)-1,1,4a,10b-tetramethyl-4,4a,5,6,10b,11,12,12a-octahydro-(1 H,3H,4bH)-chrysen-2-one]", "values": [{"measurement": "A2 (putative affinity value)", "setting": "ETA receptors [1]", "result": 318, "unit": "nM"}]}
{"compound": "Endothelin-1 [ET-1]", "values": [{"measurement": "Emax, normalized maximal vasoconstriction", "setting": "ETA receptors [7]; normalized to 10 mM Ca2+ vasoconstriction", "result": 140, "unit": "%"}, {"measurement": "EC50", "setting": "ETA receptors [7]; read-out: EC50 of vasoconstriction, gerbil spiral modiolar artery", "result": 0.74, "unit": "nM"}]}
